Laboratory results published in PubChem BioAssay (NCI).
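Each compound was tested at five concentrations against cells in 96-well plates for 48 hours. At the GI50, growth is halved. TGI marks complete inhibition of growth.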

Columns and labels:
Assay in all cases: NCI anticancer screen, dose series, 48 h
SK-MEL-5 melanoma = tested on: SK-MEL-5 melanoma
SNB-75 CNS = tested on: SNB-75 CNS
NCI/ADR-RES ovarian = tested on: NCI/ADR-RES ovarian
OVCAR-3 ovarian = tested on: OVCAR-3 ovarian
UO-31 renal = tested on: UO-31 renal
TK-10 renal = tested on: TK-10 renal
U251 CNS = tested on: U251 CNS
HL-60(TB) leukemia = tested on: HL-60(TB) leukemia
MCF7 breast = tested on: MCF7 breast
MDA-MB-435 = tested on: MDA-MB-435
A498 renal = tested on: A498 renal
HT29 colon = tested on: HT29 colon
MALME-3M melanoma = tested on: MALME-3M melanoma
NCI-H23 lung = tested on: NCI-H23 lung
SK-MEL-2 melanoma = tested on: SK-MEL-2 melanoma
PC-3 prostate = tested on: PC-3 prostate
SF-268 CNS = tested on: SF-268 CNS
IGROV1 ovarian = tested on: IGROV1 ovarian
RXF 393 renal = tested on: RXF 393 renal
UACC-62 melanoma = tested on: UACC-62 melanoma
OVCAR-5 ovarian = tested on: OVCAR-5 ovarian
LOX IMVI melanoma = tested on: LOX IMVI melanoma
EKVX NSCLC = tested on: EKVX NSCLC
HCC-2998 colon = tested on: HCC-2998 colon
HOP-62 NSCLC = tested on: HOP-62 NSCLC
SF-539 CNS = tested on: SF-539 CNS
OVCAR-8 ovarian = tested on: OVCAR-8 ovarian
A549 NSCLC = tested on: A549 NSCLC
SK-MEL-28 melanoma = tested on: SK-MEL-28 melanoma
SN12C renal = tested on: SN12C renal
RPMI-8226 leukemia = tested on: RPMI-8226 leukemia
SK-OV-3 ovarian = tested on: SK-OV-3 ovarian
MDA-MB-231 breast = tested on: MDA-MB-231 breast
HCT-116 colon = tested on: HCT-116 colon
HS 578T breast = tested on: HS 578T breast
UACC-257 melanoma = tested on: UACC-257 melanoma
NCI-H460 lung = tested on: NCI-H460 lung
HOP-92 NSCLC = tested on: HOP-92 NSCLC
KM12 colon = tested on: KM12 colon
M14 melanoma = tested on: M14 melanoma
OVCAR-4 ovarian = tested on: OVCAR-4 ovarian
DU-145 prostate = tested on: DU-145 prostate
NCI-H522 lung = tested on: NCI-H522 lung
SR leukemia = tested on: SR leukemia
NCI-H226 lung = tested on: NCI-H226 lung
COLO 205 colon = tested on: COLO 205 colon
786-0 renal = tested on: 786-0 renal
MOLT-4 leukemia = tested on: MOLT-4 leukemia
SF-295 CNS = tested on: SF-295 CNS
HCT-15 colon = tested on: HCT-15 colon
SW-620 colon = tested on: SW-620 colon
T-47D breast = tested on: T-47D breast
SNB-19 CNS = tested on: SNB-19 CNS
CCRF-CEM leukemia = tested on: CCRF-CEM leukemia
BT-549 breast = tested on: BT-549 breast
K-562 leukemia = tested on: K-562 leukemia

For CN(C)CCCOc1ccc(OCCCN(C)C)c2c1C(=O)c1ccccc1C2=O, the GI50 (SK-MEL-5 melanoma) was 1860 nM, the TGI (SK-MEL-5 melanoma) was 3560 nM and the GI50 (SNB-75 CNS) was 1510 nM. The TGI (SNB-75 CNS) was 3720 nM, the GI50 (NCI/ADR-RES ovarian) was 33600 nM and the TGI (NCI/ADR-RES ovarian) was over 100000 nM. The GI50 (OVCAR-3 ovarian) was 1930 nM, the TGI (OVCAR-3 ovarian) was 8260 nM and the GI50 (UO-31 renal) was 2640 nM. The TGI (UO-31 renal) was 18300 nM, the GI50 (TK-10 renal) was 1710 nM and the TGI (TK-10 renal) was 12500 nM. The GI50 (U251 CNS) was 682 nM, the TGI (U251 CNS) was 9020 nM and the GI50 (HL-60(TB) leukemia) was 2140 nM. It also gave a TGI (HL-60(TB) leukemia) of 6770 nM, a GI50 (MCF7 breast) of 388 nM and a TGI (MCF7 breast) of 10600 nM. The GI50 (MDA-MB-435) was 1590 nM, the TGI (MDA-MB-435) was 3190 nM and the GI50 (A498 renal) was 1380 nM. The TGI (A498 renal) was 3320 nM, the GI50 (HT29 colon) was 382 nM and the TGI (HT29 colon) was 3580 nM. For the same molecule, the GI50 (MALME-3M melanoma) was 1110 nM, the TGI (MALME-3M melanoma) was 2730 nM and the GI50 (NCI-H23 lung) was 1020 nM. It also gave a TGI (NCI-H23 lung) of 4270 nM, a GI50 (SK-MEL-2 melanoma) of 1260 nM and a TGI (SK-MEL-2 melanoma) of 3340 nM. For the same molecule, the GI50 (PC-3 prostate) was 1480 nM, the TGI (PC-3 prostate) was 5150 nM and the GI50 (SF-268 CNS) was 1320 nM. The TGI (SF-268 CNS) was 7280 nM, the GI50 (IGROV1 ovarian) was 1780 nM and the TGI (IGROV1 ovarian) was 14200 nM. The GI50 (RXF 393 renal) was 1320 nM, the TGI (RXF 393 renal) was 3690 nM and the GI50 (UACC-62 melanoma) was 1890 nM. The TGI (UACC-62 melanoma) was 4240 nM, the GI50 (OVCAR-5 ovarian) was 962 nM and the TGI (OVCAR-5 ovarian) was 5290 nM. For the same molecule, the GI50 (LOX IMVI melanoma) was 810 nM, the TGI (LOX IMVI melanoma) was 10200 nM and the GI50 (EKVX NSCLC) was 2300 nM. It also gave a TGI (EKVX NSCLC) of 11000 nM, a GI50 (HCC-2998 colon) of 1260 nM and a TGI (HCC-2998 colon) of 6520 nM. It also gave a GI50 (HOP-62 NSCLC) of 634 nM, a TGI (HOP-62 NSCLC) of 3540 nM and a GI50 (SF-539 CNS) of 1570 nM. The TGI (SF-539 CNS) was 4110 nM, the GI50 (OVCAR-8 ovarian) was 1140 nM and the TGI (OVCAR-8 ovarian) was 12000 nM. It also gave a GI50 (A549 NSCLC) of 388 nM, a TGI (A549 NSCLC) of 11900 nM and a GI50 (SK-MEL-28 melanoma) of 2010 nM. For the same molecule, the TGI (SK-MEL-28 melanoma) was 4450 nM, the GI50 (SN12C renal) was 517 nM and the TGI (SN12C renal) was 11900 nM. It also gave a GI50 (RPMI-8226 leukemia) of 2050 nM, a TGI (RPMI-8226 leukemia) of 6550 nM and a GI50 (SK-OV-3 ovarian) of 988 nM. For the same molecule, the TGI (SK-OV-3 ovarian) was 4740 nM, the GI50 (MDA-MB-231 breast) was 908 nM and the TGI (MDA-MB-231 breast) was 4630 nM. The GI50 (HCT-116 colon) was 379 nM, the TGI (HCT-116 colon) was 10300 nM and the GI50 (HS 578T breast) was 2050 nM. For the same molecule, the TGI (HS 578T breast) was 10500 nM, the GI50 (UACC-257 melanoma) was 2380 nM and the TGI (UACC-257 melanoma) was 5420 nM. The GI50 (NCI-H460 lung) was 514 nM, the TGI (NCI-H460 lung) was 11600 nM and the GI50 (HOP-92 NSCLC) was 572 nM. The TGI (HOP-92 NSCLC) was 4130 nM, the GI50 (KM12 colon) was 961 nM and the TGI (KM12 colon) was 10600 nM. It also gave a GI50 (M14 melanoma) of 1600 nM, a TGI (M14 melanoma) of 3490 nM and a GI50 (OVCAR-4 ovarian) of 1400 nM. It also gave a TGI (OVCAR-4 ovarian) of 5180 nM, a GI50 (DU-145 prostate) of 1140 nM and a TGI (DU-145 prostate) of 11800 nM. It also gave a GI50 (NCI-H522 lung) of 381 nM, a TGI (NCI-H522 lung) of 2210 nM and a GI50 (SR leukemia) of 524 nM. The TGI (SR leukemia) was 5050 nM, the GI50 (NCI-H226 lung) was 1020 nM and the TGI (NCI-H226 lung) was 5540 nM. For the same molecule, the GI50 (COLO 205 colon) was 379 nM, the TGI (COLO 205 colon) was 1820 nM and the GI50 (786-0 renal) was 1770 nM. For the same molecule, the TGI (786-0 renal) was 10300 nM, the GI50 (MOLT-4 leukemia) was 378 nM and the TGI (MOLT-4 leukemia) was 5990 nM. For the same molecule, the GI50 (SF-295 CNS) was 1710 nM, the TGI (SF-295 CNS) was 10600 nM and the GI50 (HCT-15 colon) was 5450 nM. The TGI (HCT-15 colon) was 61500 nM, the GI50 (SW-620 colon) was 532 nM and the TGI (SW-620 colon) was 11000 nM. For the same molecule, the GI50 (T-47D breast) was 1360 nM, the TGI (T-47D breast) was 8300 nM and the GI50 (SNB-19 CNS) was 941 nM. It also gave a TGI (SNB-19 CNS) of 10000 nM, a GI50 (CCRF-CEM leukemia) of 930 nM and a TGI (CCRF-CEM leukemia) of 6950 nM. It also gave a GI50 (BT-549 breast) of 1950 nM, a TGI (BT-549 breast) of 4970 nM and a GI50 (K-562 leukemia) of 706 nM. It also gave a TGI (K-562 leukemia) of 6420 nM.
